Results: PubChem BioAssay (NCI)
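Method: 48-hour compound exposure of cells in 96-well plates, five concentrations, linear interpolation of endpoints. TGI: concentration producing complete growth inhibition.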

Tests used:
Assay in all cases: NCI tumour cell line growth inhibition, 48 h
M19-MEL melanoma = test system: M19-MEL melanoma
KM20L2 colon = test system: KM20L2 colon
SNB-78 CNS = test system: SNB-78 CNS
MDA-N = test system: MDA-N
RXF-631 renal = test system: RXF-631 renal
LXFL 529 NSCLC = test system: LXFL 529 NSCLC
SN12K1 renal = test system: SN12K1 renal
P388/ADR leukemia = test system: P388/ADR leukemia

| SMILES | TGI (M19-MEL melanoma) [µM] | TGI (KM20L2 colon) [µM] | TGI (SNB-78 CNS) [µM] | TGI (MDA-N) [µM] | TGI (RXF-631 renal) [µM] | TGI (LXFL 529 NSCLC) [µM] | TGI (SN12K1 renal) [µM] | TGI (P388/ADR leukemia) [µM] |
| --- | --- | --- | --- | --- | --- | --- | --- | --- |
| CCCC/C=C1\CCC(CN2CCCCC2)C1=O (stereo unspecified) | 34.5 | 32.9 | 27.4 | > 100 | > 65.2 | 3.26 |  |  |
| COc1ccc2[nH]c(C(=O)N3CC(CCl)c4ccc(N)cc43)cc2c1 (stereo unspecified) |  |  |  | 0.347 |  |  |  |  |
| O=C1C(Br)=CC2([N+](=O)[O-])CCNc3c(O)c4c5c(c3C2=C1Br)=NCCC=5C=N4 (stereo unspecified) |  | 10.4 | 5.48 |  |  |  | 14.7 | 2.35 |
| COc1ccc2c3c1OC1CC(O)C=CC31CCN(C)C2 (stereo unspecified) | > 150 | > 150 | > 117 |  |  |  | > 150 | > 150 |
| COC(=O)/C=C\Sc1ccn(/C=C\C(=O)OC)c(=S)n1 |  |  |  | > 100 |  |  |  |  |
| CN(C)c1ccc(N2C(=S)SC(=Nc3ccccc3)C2=Nc2ccccc2)cc1 |  |  |  | > 100 |  |  |  |  |
| CC1(C)OP23(NC(=O)OC2(C(F)(F)F)c2ccccc2O3)OC1(C)C (stereo unspecified) | > 100 |  | > 100 |  |  | > 100 |  |  |
| CCOC(=O)/C(O)=C1\C(=O)N(C)C(=O)C1c1ccc(OC)c(OC)c1 (stereo unspecified) | > 100 | > 100 | > 100 |  |  |  | > 100 | > 31.6 |
